# From ChEMBL document CHEMBL4725308, “MK-5204: An orally active β-1,3-glucan synthesis inhibitor” (Bioorg Med Chem Lett, 2020)
# Assays:
# [1] = Inhibition of beta-1,3-glucan synthase in Candida albicans MY1055 microsomal membrane using UDP-[3H]-glucose as substrate incubated for 2 hrs in presence of UTP by radioactivity-based assay; assay type: cell membranes
# [2] = test system: Candida albicans; experiment: Antifungal activity against Candida albicans MY1055 assessed as fungal growth inhibition measured after 24 hrs by liquid microdilution method; assay type: functional
# [3] = test system: Aspergillus fumigatus; experiment: Antifungal activity against Aspergillus fumigatus MF5668 assessed as fungal growth inhibition measured after 24 hrs by liquid microdilution method; assay type: functional; conditions: read-out: MEC
# [4] = Oral bioavailability in mouse; assay type: ADME, organism-based; conditions: in vivo
# [5] = test system: Candida albicans; experiment: Antifungal activity against Candida albicans MY1055 infected in DBA/2 mouse model assessed as log change in colony forming units in kidney at 6.5 mg/kg, po bid for 2 days and measured after 4 days by TOKA; assay type: functional; conditions: time 2 day
# [6] = test system: Candida albicans; experiment: Antifungal activity against Candida albicans MY1055 infected in DBA mouse model assessed as log change in colony forming units in kidney at 12.5 mg/kg, po bid for 2 days and measured after 4 days by TOKA; assay type: functional; conditions: time 2 day
# [7] = test system: Candida albicans; experiment: Antifungal activity against Candida albicans MY1055 infected in DBA/2 mouse model assessed as log change in colony forming units in kidney at 25 mg/kg, po bid for 2 days and measured after 4 days by TOKA; assay type: functional; conditions: time 2 day
# [8] = test system: Candida albicans; experiment: Antifungal activity against Candida albicans MY1055 assessed as fungal growth inhibition measured after 24 hrs in presence of mouse serum by liquid microdilution method; assay type: functional
SMILES,IC50 [1] [µg/mL],MIC [2] [µg/mL],minimal effective concentration [3] [µg/mL],bioavailability [4] [%],Activity [5] [log CFU],Activity [6] [log CFU],Activity [7] [log CFU],MIC [8] [µg/mL]
CCC(N)(CC)CO[C@H]1[C@H](n2ncnc2C(N)=O)C[C@@]23COC[C@@]1(C)[C@@H]2CC[C@H]1C3=CC[C@@]2(C)[C@H](C(=O)O)[C@@](C)([C@H](C)C(C)C)CC[C@]12C,0.007,0.125,< 0.03,3,-0.2,-0.6,-1.9,16
CC(C)[C@@H](C)[C@@]1(C)CC[C@]2(C)[C@H]3CC[C@@H]4[C@@]5(COC[C@]4(C)[C@@H](OC[C@](C)(N)C(C)C)[C@H](n4ncnc4C(=O)N(C)C)C5)C3=CC[C@@]2(C)[C@@H]1C(=O)O,0.009,0.25,< 0.03,16,-1,-1.3,-2.4,8
CC(C)[C@@H](C)[C@@]1(C)CC[C@]2(C)[C@H]3CC[C@@H]4[C@@]5(COC[C@]4(C)[C@@H](OC[C@](C)(N)C(C)C)[C@H](n4ncnc4Br)C5)C3=CC[C@@]2(C)[C@@H]1C(=O)O,0.002,0.5,< 0.03,33,-0.2,-1.7,-2.3,8
COC(=O)c1ncnn1[C@@H]1C[C@@]23COC[C@@](C)([C@@H]2CC[C@H]2C3=CC[C@@]3(C)[C@H](C(=O)O)[C@@](C)([C@H](C)C(C)C)CC[C@]23C)[C@H]1OC[C@](C)(N)C(C)C,0.004,1,0.125,–,–,–,–,32
CC(C)[C@@H](C)[C@@]1(C)CC[C@]2(C)[C@H]3CC[C@@H]4[C@@]5(COC[C@]4(C)[C@@H](OC[C@H](N)C(C)(C)C)[C@H](n4ncnc4C(N)=O)C5)C3=CC[C@@]2(C)[C@@H]1C(=O)O,0.008,0.25,< 0.03,10,-1.9,-1.7,-2.6,8
CCCN[C@@](C)(CO[C@H]1[C@H](n2ncnc2C(N)=O)C[C@@]23COC[C@@]1(C)[C@@H]2CC[C@H]1C3=CC[C@@]2(C)[C@H](C(=O)O)[C@@](C)([C@H](C)C(C)C)CC[C@]12C)C(C)C,0.015,0.5,< 0.03,19,-0.7,-0.8,-1.9,32
CC(C)[C@@H](C)[C@@]1(C)CC[C@]2(C)[C@H]3CC[C@@H]4[C@@]5(COC[C@]4(C)[C@@H](OC[C@@](C)(C(C)C)N(C)C)[C@H](n4ncnc4C(N)=O)C5)C3=CC[C@@]2(C)[C@@H]1C(=O)O,0.015,0.5,< 0.03,21,-0.3,-1.4,-1.8,16
CC(C)[C@@H](C)[C@@]1(C)CC[C@]2(C)[C@H]3CC[C@@H]4[C@@]5(COC[C@]4(C)[C@@H](OC[C@](C)(N)C(C)C)[C@H](n4cnc(C#N)n4)C5)C3=CC[C@@]2(C)[C@@H]1C(=O)O,0.334,8,4,–,–,–,–,> 32
CC(C)[C@@H](C)[C@@]1(C)CC[C@]2(C)[C@H]3CC[C@@H]4[C@@]5(COC[C@]4(C)[C@@H](OCC4(N)CCCCC4)[C@H](n4ncnc4C(N)=O)C5)C3=CC[C@@]2(C)[C@@H]1C(=O)O,0.01,0.06,< 0.03,–,-0.5,-1.8,-1.8,16
CC(C)[C@@H](C)[C@@]1(C)CC[C@]2(C)[C@H]3CC[C@@H]4[C@@]5(COC[C@]4(C)[C@@H](OC[C@](C)(N)C(C)C)[C@H](n4cnnc4Cl)C5)C3=CC[C@@]2(C)[C@@H]1C(=O)O,> 1,32,16,–,–,–,–,> 32
CC(C)[C@@H](C)[C@@]1(C)CC[C@]2(C)[C@H]3CC[C@@H]4[C@@]5(COC[C@]4(C)[C@@H](OC[C@](C)(N)C(C)C)[C@H](n4cnnc4C#N)C5)C3=CC[C@@]2(C)[C@@H]1C(=O)O,> 1,16,8,–,–,–,–,> 32
CC(C)[C@@H](C)[C@@]1(C)CC[C@]2(C)[C@H]3CC[C@@H]4[C@@]5(COC[C@]4(C)[C@@H](OC[C@](C)(N)C(C)C)[C@H](n4ncnc4N)C5)C3=CC[C@@]2(C)[C@@H]1C(=O)O,0.01,0.25,0.125,–,–,–,–,16
CC(C)[C@@H](C)[C@@]1(C)CC[C@]2(C)[C@H]3CC[C@@H]4[C@@]5(COC[C@]4(C)[C@@H](OC[C@](C)(N)C(C)C)[C@H](n4ncnc4C#N)C5)C3=CC[C@@]2(C)[C@@H]1C(=O)O,0.006,0.125,< 0.03,–,-0.9,0,-1.1,8
CC(C)[C@@H](C)[C@@]1(C)CC[C@]2(C)[C@H]3CC[C@@H]4[C@@]5(COC[C@]4(C)[C@@H](OC[C@](C)(N)C(C)C)[C@H](n4cnc(Cl)n4)C5)C3=CC[C@@]2(C)[C@@H]1C(=O)O,0.019,8,0.25,–,–,–,–,> 32
CC(C)[C@@H](C)[C@@]1(C)CC[C@]2(C)[C@H]3CC[C@@H]4[C@@]5(COC[C@]4(C)[C@@H](OC[C@](C)(N)C(C)C)[C@H](n4cncn4)C5)C3=CC[C@@]2(C)[C@@H]1C(=O)O,0.007,0.25,< 0.03,–,–,–,–,4
CC(C)[C@@H](C)[C@@]1(C)CC[C@]2(C)[C@H]3CC[C@@H]4[C@@]5(COC[C@]4(C)[C@@H](OCC4(N)CCOCC4)[C@H](n4ncnc4C(N)=O)C5)C3=CC[C@@]2(C)[C@@H]1C(=O)O,0.008,0.125,< 0.03,–,–,–,–,2
CC(C)[C@@H](C)[C@@]1(C)CC[C@]2(C)[C@H]3CC[C@@H]4[C@@]5(COC[C@]4(C)[C@@H](OC[C@](C)(N)C(C)C)[C@H](n4ncnc4S(N)(=O)=O)C5)C3=CC[C@@]2(C)[C@@H]1C(=O)O,0.006,0.25,< 0.03,–,-0.8,-0.8,-0.7,8
CCS(=O)(=O)c1ncnn1[C@@H]1C[C@@]23COC[C@@](C)([C@@H]2CC[C@H]2C3=CC[C@@]3(C)[C@H](C(=O)O)[C@@](C)([C@H](C)C(C)C)CC[C@]23C)[C@H]1OC[C@](C)(N)C(C)C,0.005,1,< 0.03,–,–,–,–,8
CCSc1ncnn1[C@@H]1C[C@@]23COC[C@@](C)([C@@H]2CC[C@H]2C3=CC[C@@]3(C)[C@H](C(=O)O)[C@@](C)([C@H](C)C(C)C)CC[C@]23C)[C@H]1OC[C@](C)(N)C(C)C,0.009,0.5,< 0.03,–,–,–,–,32
CC(C)[C@@H](C)[C@@]1(C)CC[C@]2(C)[C@H]3CC[C@@H]4[C@@]5(COC[C@]4(C)[C@@H](OC[C@](C)(N)C(C)C)[C@H](n4ncnc4I)C5)C3=CC[C@@]2(C)[C@@H]1C(=O)O,0.005,0.5,< 0.03,–,–,–,–,16
